Key:
topoisomerase I = molecular target: T1, topoisomerase I (Homo sapiens, UniProt P11387); conditions: cited from earlier work
T1 sequence (P11387 1-765): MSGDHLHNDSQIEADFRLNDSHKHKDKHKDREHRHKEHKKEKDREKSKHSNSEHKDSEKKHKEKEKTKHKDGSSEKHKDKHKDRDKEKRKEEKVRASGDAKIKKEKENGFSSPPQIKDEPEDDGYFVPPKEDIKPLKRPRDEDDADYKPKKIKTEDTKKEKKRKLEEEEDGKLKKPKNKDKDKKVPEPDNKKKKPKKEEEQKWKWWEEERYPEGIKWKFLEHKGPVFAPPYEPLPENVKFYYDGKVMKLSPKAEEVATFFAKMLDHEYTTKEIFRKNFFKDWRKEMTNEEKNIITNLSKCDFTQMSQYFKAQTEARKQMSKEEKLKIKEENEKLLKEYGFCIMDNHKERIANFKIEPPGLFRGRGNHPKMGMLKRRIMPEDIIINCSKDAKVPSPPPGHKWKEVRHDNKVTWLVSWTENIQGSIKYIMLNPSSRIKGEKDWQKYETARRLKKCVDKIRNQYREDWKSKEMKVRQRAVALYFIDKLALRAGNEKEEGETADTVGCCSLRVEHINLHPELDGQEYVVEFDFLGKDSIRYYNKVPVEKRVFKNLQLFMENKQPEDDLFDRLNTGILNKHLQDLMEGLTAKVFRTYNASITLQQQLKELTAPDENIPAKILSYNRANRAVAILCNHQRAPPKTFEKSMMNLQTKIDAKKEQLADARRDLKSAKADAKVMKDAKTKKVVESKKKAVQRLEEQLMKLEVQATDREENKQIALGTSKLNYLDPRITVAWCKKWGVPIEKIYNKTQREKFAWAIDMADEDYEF

[1] = tested on: intestinal cells from whole small-intestine; test: Uptake of 14C-labeled CPT-11 and SN-38 by intestinal cells, regions combined or not distinguished (TCA, pH, bicarbonate effects)
Description: By adding the drugs to Hank's solution containing intestinal cells from whole small-intestine, uptake studies were performed.
Intestinal cells were isolated as previously described (28, 29). Briefly, male hamsters were anesthetized with sodium pentobarbital (Nembutol 70 mg/kg body weight). The entire intestine was removed. The intestinal lumen was washed with 37° C. Hank's solution. Sacs of the ileum (12.5 cm from cecum) and jejunum (remaining small intestine) were rinsed, as well as the intestinal sacs of the anal site of small intestine (12.5 cm from cecum) and oral site (the other small intestine). The sacs were rinsed with oxygenated buffer solution containing sodium citrate (96 mM NaCl, 1.5 mM KCl, 5.6 mM KH2PO4, 27 mM sodium citrate, pH 7.3), and incubated for 10 min in the same buffer at 37° C. The sacs were then emptied, filled with oxygenated buffer solution containing EDTA (140 mM NaCl, 16 mM Na2HPO4, 2 mM EDTA, 0.5 mM dithiothreitol, pH 7.3), incubated for 10 min at 37° C. Then each sac was placed onto a petri dish and gently vortexed for 1 min. The buffer containing intestinal cells was recovered in 50 mL of Hanks' solution, washed twice and adjusted at 10^6 cells/ml in Hanks' medium (cellular stock solution containing 0.5% bovine serum albumin, pH 7.4).
The cellular suspension of 0.95 ml was incubated for 15 min in a 37° C. water bath with stirring. Uptake was started by the addition of 0.05 ml PBS (at pH 3 or 9) containing labeled SN-38 or CPT-11 at 37° C. At various time intervals, 100 μL, sample aliquots were diluted into 3 mL of Hank's medium at 4° C. to stop the uptake. The stop solution containing the cells was filtered through a glass microfiber filter (Glass Fiber Filter Circles G4, Fisherbrand, Pa.) under vacuum (20 psi). The cells were washed once with 5 mL of 0.5% bovine serum albumin-containing Hanks' medium (4° C.) and once with 20 mL of Hanks' solution (4° C.). The filters were placed in a vial containing 4 mL of scintillation liquid (Ultra Gold, Packard, Conn.) and the radioactivity was counted in a β scintillation counter (LS3801, Beckman, Md.).
The effect of the metabolic inhibitor, 2,4 dinitrophenol (1 mM), was studied by adding this agent to the cells 3 min prior to either ^14C-CPT-11 or ^14C-SN-38 (2 μM). The effect of 20 mM of taurocholic acid (TCA) on the uptake of both CPT-11 and SN-38 was investigated following overnight incubation of ^14C-CPT-11 (20 μM) and ^14C-SN-38 (2 μM) in Hank's solution, at pH 7.4 and in the presence and absence of TCA. The effect of 200 μM of DNP-SG or SN-38-Glu was also studied by adding these agents to the cell preparation 7 min prior to either ^14C-CPT-11 (20 μM) and ^14C-SN-38 (2 μM).
The effect of physiologic pH on the initial intestinal uptake rate of CPT-11 and SN-38 was investigated following overnight incubation of ^14C-CPT-11 (20 μM) and ^14C-SN-38 (2 μM) in phosphate buffered saline at pH 6.2, 6.8, 7.4 and 8, respectively.
The initial rate of uptake of CPT-11 or SN-38 was derived from the linear regression analysis of the respective regression line obtained from the plot of the uptake as a function of time. The initial rates of uptake were plotted against the corresponding concentration. The data were fitted by least-squares nonlinear regression analysis (SigmaStat, Jandel Scientific, CA), using the equation V=(Vmax·S)/(Km+S)+Kd·S where V represents the initial rate of uptake. Vmax is the maximum rate of uptake, Km is the apparent Michaelis constant, Kd is the rate of diffusion and S is the concentration of CPT-11 or SN-38.

[2] = format: physicochemical; conditions: 1,000-molecular weight cut-off membrane
From the text: Monomers were separated from micellar aggregates by ultrafiltration through a 1000-molecular weight cut-off membrane (YM1) as described in Materials and Methods. Values are the monomeric forms of the indicated metabolites, expressed as a percentage (%) of the concentration of the initial solution before ultrafiltration. Comparison between TCA and control was estimated by Mann-Whitney test. […] Abbreviations used: CPT lactone (CPT lact.); CPT carboxylate (CPT carb.); SN-38 lactone (SN lact.); and SN-38 carboxylate (SN carb.).

HT29 cells [3] = test: Initial uptake rate of [14C]SN-38 by HT29 cells as a function of pH; format: in vitro ADME
Description: The uptake study was initiated by adding the compounds to Hanks' solution containing HT29 cells. The comparative initial rate of uptake as function of pH was analyzed by Kruskal-Wallis test (p<0.001) and Dunn's method (*p<0.05).
Uptake of ^14C-labeled CPT-11 and SN-38 was measured by rapid vacuum filtration assay (28, 29).

Solubility in water = format: physicochemical
[4] = bile of two men treated by cisplatin who received CPT-11 intravenously; cited from earlier work
[5] = rat; 24 h after IV injection of 14C-SN-38; cited from earlier work
HT29 cells [6] = test: Cytotoxicity assay (MTT, mitochondrial dehydrogenase activity) in HT29 cells; format: cell-based; conditions: 0.4 μM SN-38; 24 h exposure, 24 h drug-free; pH 6.2, 6.8, 7.4, 8.0
Description: Rapid colorimetric assay for mitochondrial dehydrogenase activity was modified and used for the estimation of cytotoxicity of SN-38 (Mosmann, 1983). […] After 24 h-exposure, the cells were washed twice, and subjected to a drug-free incubation for 24 h. Then, the cells were incubated with 0.5 mg/ml 3-(4,5-dimethylthiazol-2-yl)-2,5-diphenyl-tetrazolium bromide (MTT) for 4 h, and the blue formazan crystals were solubilized by addition of 10% n-dodecylsulfate sodium salt (SDS) in 0.1N HCl and overnight incubation. The formation of the blue formazan compound is spectrophotometrically determined at 560 nm (Ultraspec 4050, LKB, Bromma, Sweden).

[7] = cited from earlier work

SMILES	topoisomerase I-inhibitory activity (topoisomerase I)	transport mechanism in intestinal cells [1]	saturability of the uptake (predominant component) ([1]; jejunal and ileal cells, SN-38 concentrations lower than 2 μM)	effect of TCA on % monomer concentration / association to TCA micelles [2]	initial rate of uptake in HT-29 cells compared with isolated hamster intestinal cells (HT29 cells [3])	uptake rate in HT29 cells as a function of pH (HT29 cells [3]; 2 μM [14C]SN-38, pH 6.2, 6.8, 7.4, 8.0)	solubility in water (Solubility in water)	share of the biliary content [4]	initial uptake rate at acidic pH (pH 6.2 and 6.8) versus neutral or alkaline pH (pH 7.4 and 8) [1]	initial uptake rate in the presence of 20 mM TCA ([1]; cells from jejunum and ileum combined, 14C-CPT-11 20 μM, 14C-SN-38 2 μM, pH 7.4, mean±SD, n=5)	decrease of the uptake rate at a pH greater than 6.8 ([1]; pH 6.2)	uptake when HEPES of the Hank's buffer was replaced by sodium bicarbonate ([1]; pH adjusted to greater than 7)	distribution of radioactivity [5]	cytotoxicity for HT29 cells as a function of pH (HT29 cells [6])	share in lactone form at pH 7.4 [7] [%]
CCc1c2c(nc3ccc(O)cc13)-c1cc([C@@](O)(CC)C(=O)O)c(CO)c(=O)n1C2 [SN-38 carboxylate]	only minor	actively absorbed	mostly non-saturable	did not significantly associate to TCA micelles	–	–	–	–	–	–	–	–	–	–	–
CCc1c2c(nc3ccc(O)cc13)-c1cc3c(c(=O)n1C2)COC(=O)[C@]3(O)CC [SN-38, 7-ethyl-10-hydroxy-camptothecin]	–	–	–	–	lower in HT-29 cells than in isolated hamster intestinal cells	significantly greater at pH 6.2 and 6.8, than at pH 7.4 and 8.0	poorly soluble in water	0.9-3.3%	several times greater	69.3±12.7 % of control without TCA	around 65%	decreased	found exclusively in the gastrointestinal tract	significantly higher at pH 6.2 and 6.8 than at pH 7.4 and 8.0	13

From patent US6635628B2, “Methods of administering camptothecin compounds for the treatment of cancer with reduced side effects” (The George Washington University, priority 1998, dated 2003)
